Results from PMC6408276 (ACS infectious diseases, 2019).
Values joined by “and” are separate entries in the source; they are usually repeats but may differ in a detail not shown here. Equal entries are not always repeated.

Assays:
[1] = system: Colombiana strain of Trypanosoma cruzi; test: Assessment of therapeutic failure after cyclophosphamide immunosuppression; type: in vivo; settings: for Blood parasite load determined by qPCR: n=5, after cyclophosphamide; for Blood parasite load determined by qPCR / % Negative blood qPCR: VFV in 10 % DMSO plus 5 % Gum Arabic; for % Blood parasite clearence (negative qPCR): n=10, after cyclophosphamide immunosuppression, VFV in DGAT; for % Negative blood qPCR: surviving mice n=5, after cyclophosphamide
[2] = system: Colombiana strain of Trypanosoma cruzi; test: Mouse model of T. cruzi infection: parasitemia, survival and natural relapse; type: in vivo
[3] = cited from earlier work
[4] = cited from earlier work; remark: listed apart in the source
[5] = PK studies in mice after single oral administration; type: in vivo; settings: for Life time (time until compound becomes undetectable, below 0.1 μM): mice plasma; for Life time (time until compound becomes undetectable, below 0.1 μM) / Bioavailability when Tween 80 was added to the vehicle (DGAT vs HPCD): single oral 25 mg/kg; for Bioavailability when Tween 80 was added to the vehicle (DGAT vs HPCD): mice; for Tmax: mouse, po, 25 mg/kg
[6] = system: NIH/3T3; settings: cited from earlier work
[7] = system: CYP3A4; settings: read-out: CYP3A4 IC50; cited from earlier work
[8] = cited from earlier work; remark: listed apart in the source
[9] = Swiss male mice n=5, 60 days po, VNI and VFV in 10 % DMSO plus 5 % Gum Arabic
[10] = Swiss male mice n=10, 60 days po, VFV in DGAT

| SMILES | Blood parasite load determined by qPCR [1] | % Blood parasite clearence (negative qPCR) [1] | % Negative blood qPCR [1] | % Animal survival [2, 9] | Natural relapse after the therapy [2, 9] | % Animal survival [2, 10] | Natural relapse after the therapy [2, 10] | Hepatic clearance [3] | NOAEL (in vivo toxicity) [4] | Life time (time until compound becomes undetectable, below 0.1 μM) ([5]; HPCD formulation) | Bioavailability when Tween 80 was added to the vehicle (DGAT vs HPCD) [5] | Tmax ([5]; in vivo) | % Parasitemia suppression [2, 10] | EC25 (cellular toxicity) [6] | IC50 [7] | Life time (time until compound becomes undetectable, below 0.1 μM) ([5]; DGAT formulation) | Tmax ([5]; plasma) | Sustained negative parasitemia after cyclophosphamide (light microscopy) ([1]; n=5, 10 % DMSO plus 5 % Gum Arabic vehicle) | % Parasitemia suppression [2, 9] | Maximal concentration in mice plasma [8] |
| --- | --- | --- | --- | --- | --- | --- | --- | --- | --- | --- | --- | --- | --- | --- | --- | --- | --- | --- | --- | --- |
| O=C(Cn1ccnc1[N+](=O)[O-])NCc1ccccc1 [Bz, benznidazole, reference compound] | 13038 ± 13612 | 30% | 0% | 100% | all animals and 5 out of 5 mice | 100% | 6 mice and 6 out of 10 mice |  |  |  |  |  |  |  |  |  |  |  |  |  |
| O=C(N[C@@H](Cn1ccnc1)c1ccc(-c2ccc(F)cc2)cc1F)c1ccc(-c2nnc(-c3ccccc3)o2)cc1 [VFV, (R)-N-(1-(3,4′-difluorobiphenyl-4-yl)-2-(1H-imidazol-1-yl)ethyl)-4-(5-phenyl-1,3,4oxadiazol-2-yl)benzamide] | 905 ± 854 | 0% | 0% | 100% | all animals and 5 out of 5 mice | 100% | 5 mice and 5 out of 10 mice | moderate hepatic clearance | > 200 mg/kg | <24 h | three-fold higher bioavailability | 4 h | 99.8% | > 50 µM | 3.6 µM |  |  |  |  |  |
| O=C(N[C@@H](Cn1ccnc1)c1ccc(Cl)cc1Cl)c1ccc(-c2nnc(-c3ccccc3)o2)cc1 [VNI, (R)-N-(1-(2,4-dichlorophenyl)-2-(1H-imidazol-1-yl)ethyl)-4-(5-phenyl-1,3,4-oxadi-azol-2 yl)benzamide] | 372 ± 528 |  | 20% | 100% | 3 out of five and 3 out of 5 mice |  |  |  |  | 10 h | three-fold higher bioavailability |  |  |  |  | 16 h | 2 h | 20% | 99.9% |  |
